Here are results for three compounds from patent US20250352675A1, “CA-IX TARGETING FLUORESCENT PROBES” (BRACCO IMAGING S.P.A., priority 2022, published 2025).

One data set addresses T1, CA-IX (Homo sapiens, UniProt Q16790).
T1 construct: host or cells: HT-29 human colorectal adenocarcinoma cells
In words: Cellular binding assessment by flow cytometry on CA-IX expressing HT-29 cells. As to conditions: 1 hour 30 min on ice, read-out: CA-IX receptor affinity (KD, to HT-29 cells). As to the method:
Human colon adenocarcinoma HT-29 cells (ATCC) used for the cellular binding experiments were cultured in McCoy's 5A medium (Sigma-Aldrich), supplemented with 10% HyClone Fetal Clone III (Euroclone), 2 mM L-glutamine (Sigma-Aldrich), 100 IU/mL penicillin, 0.1 mg/mL streptomycin, 0.25 μg/mL amphotericin B (Antibiotic-Antimycotic solution, Life Technologies) and cells were grown at 37° C. in humidified atmosphere enriched with 5% CO2. DPBS without MgCl2 and CaCl2 (Sigma-Aldrich) was used for cell rinsing.
Indeed, by using the anti-human CA-IX antibody MAB2188 (R&D Systems) and the DAKO […], according to the instruction of the datasheet, HT-29 cells were estimated to express about 150,000 CA-IX molecules per cell. Thus, HT-29 cells were used to measure the binding of all compounds to CA-IX, expressed in its physiological environment at the cell-surface. Briefly, HT-29 cells were detached with StemPro® Accutase® Cell Dissociation Reagent (Life Technologies), collected in DPBS and counted. At least 2·10^5 cells were placed in 1.5 mL tubes on ice and resuspended in 50-100 μL of cold FACS buffer (eBioscience™ Flow Cytometry Staining Buffer, Invitrogen) containing scalar concentrations of compounds (compound 1: range 1-5 μM; compounds 2 and 3: range 0-20 μM). After incubation (1 hour and 30 min on ice in the dark), cells were rinsed 3 times in 300 μL of cold FACS buffer by centrifugation (5 min, 4° C., 350 RCF), discarding the supernatant. Cell pellets were then resuspended in 200 μL of cold FACS buffer (or in a suitable volume in order to obtain no more than 1000 recorded events per μL during FACS analysis) and analyzed with the flow cytometer Accuri™ C6 (BD Biosciences). The mean cell-associated fluorescence was plotted against concentration and the dissociation constant at equilibrium (Ko) was inferred by mathematical fitting with GraphPad Prism v.9 software, according to the following equation: […]
where Bmax is the maximum specific binding in the same units as Y. KD is the equilibrium dissociation constant, in the same units as X. NS is the slope of nonspecific binding in Y units divided by X units. Background is the amount of nonspecific binding with no added Compound.
All compounds were analyzed in at least three independent experiments. The calculated KD are summarized in Table III and compared with the one obtained for HF-1.
A general note: A flow cytometer gives signals particle by particle.

Data set [1] can be described thus: Optical characterization (excitation/emission maxima, molar extinction coefficient). Type of data set: physicochemical. As to conditions: in water.
In data set [2] the test system is HT-29 cells. In words: Time-dependent cell uptake / internalization in HT-29 cells by flow cytometry. As to conditions: 1 μM; for Slope of cell-associated fluorescence increase / total cell-associated fluorescence over time: 37° C.; for Slope of cell-associated fluorescence increase: 1-6 hours; for total cell-associated fluorescence over time: 1 to 6 hours; for % internalization (mean ± std. dev.): after 2 hours at 37° C. Type of data set: cell-based, human. As for the experimental part:
(§1) The HT-29 cells were used as in vitro model to assess the cell uptake of the CA-IX targeting compounds of the invention, more specifically whether cellular internalization of compounds occurred after targeting to cell-surface-expressed CA-IX. Cellular uptake was evaluated by flow cytometry. […] Treatment with unconjugated dyes were used to estimate non-specific CA-IX-independent cellular uptake. Cell incubation on ice was used to discriminate the cell-associated fluorescence deriving from internalized and cell-surface associated compounds (37° C.), from the one deriving from solely cell surface-bound compounds (on ice). Treatment of HT-29 cells, grown in 24-well plates, was performed by rinsing cells in DPBS and then by incubation with treatment solutions, for the indicated times and temperatures, in the dark. At the end of treatment, cells were rinsed 3 times with cold DPBS, and detached from the plate with StemPro® Accutase® Cell Dissociation Reagent, collected in 1.5 mL tubes after dilution in DPBS and centrifuged (5 minutes, 350 RCF, 4° C.). The supernatant was then discarded, and the cell pellet was resuspended in 300 μL of cold FACS buffer, or in a suitable volume in order to obtain no more than 1,000 recorded events per μL during FACS analysis. Samples were analyzed with the flow cytometer Accuri™ C6 (BD Biosciences) using the 640 nm excitation laser and the emission 780/60 nm filter. At least 15000 valid events were collected for each sample. At the end of analysis, each sample was plotted in histograms, being X the fluorescence intensity (FL4-A) in log scale and Y the counts. Usually, a gaussian distribution of the cell population was observed. The data retrieved were the mean fluorescence of each population, considered the fluorescence intensity value of the corresponding sample. Independent replicates were performed for each experimental condition. Normalized cell-associated fluorescence was calculated with the following formula: […]
To evaluate the time dependent uptake, the experiments were conducted from 1 to 6 hours of cell treatment with a compound concentration of 1 μM, both on ice (internalization blocked) and at 37° C. (internalization-permissive temperature) in order to differentiate cell-associated fluorescence deriving from internalized compounds from that due to cell surface-associated one. The cell surface-associated fluorescence remained roughly constant over time while the binding of the corresponding unconjugated dyes was undetectable. […] The internalization potential was calculated as percentage of internalized compounds after 2 hours of cell treatment (arbitrarily chosen) at 37° C.

In data set [3] the test system is HT-29 cells. In words: Receptor-mediated uptake: competition with 100x excess of acetazolamide in HT-29 cells. Type of data set: cell-based, human. The note with it: 1 μM, 2 hours at 37° C., relative to uptake without acetazolamide. As to the method: as §1
The nature of data set [4]: Optical characterization (excitation/emission maxima, molar extinction coefficient). Type of data set: physicochemical. As for the experimental part:
A dual-beam UV-VIS spectrophotometer (Lambda 40, Perkin Elmer) was used to determine the absorbance (Abs) of the compounds of the invention. Emission/excitation (Em/Ex) spectra were carried out on a spectrofluorometer (FluoroLog-3 1IHR-320, Horiba Jobin Yvon) equipped with an F-3018 integrating sphere accessory. The measurements were performed using an excitation wavelength at maximum absorbance of different dyes, and the sample was excited with a 450W Xenon Light Source. Detection was performed by photomultiplier tubes (PMT-NIR) cooled detector or by TBX-04 detector. Dye solutions were carefully prepared to have an absorbance lower than 0.1 (optical densities) to minimize re-absorption phenomena.
The compounds of the invention were characterized in terms of their optical properties in vitro in aqueous medium (i.e., water/PBS pH 7.4) and in a clinical chemistry control serum (Seronorm, Sero S A), mimicking the chemical composition and optical properties of human serum. All solutions were freshly prepared. In particular, the compounds of the invention are characterized by absorption maxima comprised in the range from about 750 nm to 780 nm.
The excitation and emission maxima in PBS and Seronorm and the molar extinction coefficient (E) in water of representative compounds of formula (I) are shown in Table I in comparison with the known CA-IX targeting fluorescent probe named Hypoxyfluor-1 (HF-1, for instance disclosed in Bioconjugate Chem 2018, 29, 3320-3331). […] Moreover, the extinction coefficients were higher than […] for all compounds.

For `CC1(C)C(/C=C/C=C/C=C/C=C2/N(CCCCS(=O)(=O)O)c3ccc(C(=O)NC[C@H](O)[C@@H](O)[C@H](O)[C@H](O)CO)cc3C2(C)C)=[N+](CCCCS(=O)(=O)[O-])c2ccc(C(=O)NCCCCCCCC(=O)Nc3nnc(S(N)(=O)=O)s3)cc21` [Compound 1], the equilibrium dissociation constant (Kd) (as a rule, the free concentration of one partner at which half of the binding sites on the other are occupied at equilibrium, for simple one-to-one binding) at CA-IX is 0.068 ± 0.004 µM. The compound also showed a molar extinction coefficient (ε) in data set [1] of 240000 M⁻¹ cm⁻¹. Further, in the data set with HT-29 cells [2], the “Slope of cell-associated fluorescence increase” value is listed as 1.0, the “total cell-associated fluorescence over time” value is recorded as “increased over time” and the “% internalization (mean ± std. dev.)” value is 22.8 ± 8.2%. For the same compound, the “% uptake in presence of 100x excess of acetazolamide” value (from here on “% uptake in presence”) in the data set with HT-29 cells [3] was determined as 16.4 ± 1.9%. Moreover, in data set [4] (PBS pH 7.4), the “Max Em” value was 783 nm and the “Max Ex” value is 752 nm. For the same compound, in data set [4] (Seronorm), the “Max Em” value is given as 791 nm and the “Max Ex” value was determined as 768 nm.
With `CC1(C)C(/C=C/C=C/C=C/C=C2/N(CCCCS(=O)(=O)O)c3ccc(S(=O)(=O)O)cc3C2(C)C)=[N+](CCCCS(=O)(=O)[O-])c2ccc(C(=O)NCCCCCCCC(=O)Nc3nnc(S(N)(=O)=O)s3)cc21` [Compound 2], the Kd on CA-IX was 0.054 ± 0.003 µM. The same compound yielded a molar extinction coefficient (ε) in data set [1] of 260000 M⁻¹ cm⁻¹. In the data set on HT-29 cells [2], the “Slope of cell-associated fluorescence increase” value is reported as 1.9, the “total cell-associated fluorescence over time” value was “increased over time” and the “% internalization (mean ± std. dev.)” value worked out at 40.8 ± 9.9%. For the same compound, in the data set with HT-29 cells [3], the “% uptake in presence” value was determined as 28.4 ± 2.2%. Moreover, in data set [4] (PBS pH 7.4), the “Max Em” value is listed as 784 nm and the “Max Ex” value was determined as 754 nm. Further, in data set [4] (Seronorm), the “Max Em” value is reported as 788 nm and the “Max Ex” value was 768 nm.
`CC1(C)C(/C=C/C2=C(Oc3ccc(S(=O)(=O)O)cc3)C(=C/C=C3/N(CCCCS(=O)(=O)O)c4ccc(S(=O)(=O)O)cc4C3(C)C)/CCC2)=[N+](CCCCS(=O)(=O)[O-])c2ccc(C(=O)NCCCCCCCC(=O)Nc3nnc(S(N)(=O)=O)s3)cc21` [Compound 3]: the Kd at CA-IX came to 0.062 ± 0.004 µM. The molar extinction coefficient (ε) in data set [1] is 240000 M⁻¹ cm⁻¹. For the same compound, in the data set on HT-29 cells [2], the “Slope of cell-associated fluorescence increase” value is reported as 2.7, the “total cell-associated fluorescence over time” value is listed as “increased over time” and the “% internalization (mean ± std. dev.)” value was determined as 49.2 ± 3.9%. In addition, in the data set on HT-29 cells [3], the “% uptake in presence” value was found to be 18.1 ± 11.5%. Besides, in data set [4] (PBS pH 7.4), the “Max Em” value came out at 802 nm and the “Max Ex” value was found to be 776 nm. Besides, in data set [4] (Seronorm), the “Max Em” value stood at 810 nm and the “Max Ex” value is reported as 792 nm.
